This is an account of results in patent US4579866A, “Phenylacetamides as anti-allergy, anti-asthma and anti-inflammatory agents” (USV Pharmaceutical Corp., priority 1984, dated 1986).

This test has as its target T1, RAT 5-LIPOXYGENASE (Rattus norvegicus, UniProt P12527).
T1 construct: A suspension of rat neutrophils in buffer; endogenous in cells; host or cells: rat neutrophils (polymorphonuclear leukocytes)
T1 sequence (P12527 1-673): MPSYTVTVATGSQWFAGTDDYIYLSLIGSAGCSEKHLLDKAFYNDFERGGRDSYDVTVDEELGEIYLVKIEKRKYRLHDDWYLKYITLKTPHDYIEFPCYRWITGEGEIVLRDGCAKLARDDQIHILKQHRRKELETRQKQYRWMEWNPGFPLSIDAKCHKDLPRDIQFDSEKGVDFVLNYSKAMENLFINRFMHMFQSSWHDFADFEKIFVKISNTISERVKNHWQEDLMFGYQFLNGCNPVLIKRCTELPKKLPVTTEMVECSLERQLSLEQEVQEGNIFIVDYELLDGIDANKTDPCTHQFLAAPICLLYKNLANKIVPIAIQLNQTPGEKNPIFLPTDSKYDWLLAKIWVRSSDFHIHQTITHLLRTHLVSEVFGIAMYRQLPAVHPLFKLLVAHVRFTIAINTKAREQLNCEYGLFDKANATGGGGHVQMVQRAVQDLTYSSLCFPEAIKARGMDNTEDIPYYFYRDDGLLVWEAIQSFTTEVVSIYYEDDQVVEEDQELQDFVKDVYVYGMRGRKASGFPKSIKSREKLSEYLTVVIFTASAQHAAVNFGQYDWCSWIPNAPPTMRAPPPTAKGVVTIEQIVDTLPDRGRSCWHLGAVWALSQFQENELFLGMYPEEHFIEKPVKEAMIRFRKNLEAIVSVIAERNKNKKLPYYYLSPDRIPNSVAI
The test is described as follows: Biosynthesis of 5-HETE by rat polymorphonuclear leukocytes in vitro (inhibition of rat 5-lipoxygenase). In kind it is cell-based. As to conditions: rat neutrophils, A23187, 3 minutes at 30° C.; concentration at which 50% inhibition is observed; read-out: INHIBITION OF RAT 5-LIPOXYGENASE, I50. As for the experimental part:
Protocol for the Biosynthesis of 5-HETE by Rat Polymorphonuclear Leukocytes In Vitro
A suspension of rat neutrophils in buffer is incubated for 3 minutes at 30° C. with [^14 C]-arachidonic acid (AA) and calcium ionophore A23187. Citric Acid (2M) NDGA (10 mM) is used to quench the reaction. Following the addition of a trace amount of (^3 H)-5-HETE together with an excess of unlabeled 5-HETE to each tube, the mixture is extracted with chloroform/methanol. The organic layer is washed with dilute acid and an aliquot is transferred to glass tubes and dried. The residue is dissolved in a small volume of chloroform and an aliquot is spotted on silica gel TLC sheets, which are developed with an ethyl acetate/isoctane/water/acetic acid solvent system. The 5-HETE spots are visualized under UV light, cut out and placed in scintillation vials for counting. After adjusting for the extraction efficiency, the amount (pmole) of [^14 C]-5-HETE in each of the tubes is quantitated. The net pmoles of 5-HETE are obtained by subtracting the pmoles of 5-HETE in the tubes containing buffer alone (blank) from the pmoles of 5-HETE in the tubes containing […]. The ability of the test compounds to modulate the activity of this enzyme is determined by a decrease or increase in the net amount of 5-HETE produced.
If the percentage of inhibition exceeds 50%, the compounds are then evaluated in terms of response over a range of concentrations. From a plot of response against concentration, the I50 value is obtained. The I50 value is the concentration at which 50% inhibition is observed.
With `C=CCOc1ccc(CC(=O)N(C)CCc2ccccc2)cc1Cl` [N--[4-Alloyoxy-3-chlorophenylacetyl]-N--methyl-2-phenylethylamine], the IC50 worked out at 2400 nM. As for `CCCOc1ccc(CC(=O)N[C@H](Cc2ccccc2)C(=O)OC)cc1Cl` [3-Chloro-4-n-propyloxyphenylacetyl-D-phenylalanine methyl ester], the IC50 was 800 nM. Next, `CN(CC(O)c1ccccc1)C(=O)Cc1ccc(OCCc2ccccc2)c(Cl)c1` (stereo not shown) [N--[3-Chloro-4-phenylethyloxyphenylacetyl]-N--methyl-2-hydroxy-2-phenyl-ethyl-amine]: 3000 nM; `C#CCOc1ccc(CC(=O)N[C@H](Cc2ccccc2)C(=O)OC)cc1Cl` [3-Chloro-4-propargyloxyphenylacetyl-D-phenylalanine methyl ester]: 500 nM.
